PubChem BioAssay (NCI)
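Exposure lasted 48 hours, with cells grown in 96-well plates and compounds tested at five concentrations. TGI: concentration producing complete growth inhibition.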 Where a SMILES comes first, the peptide text is derived from it. The star is where a group is joined. OBn = c1ccc(CO*)cc1

Assays:
Experiment in all cases: growth of human tumour cells (NCI), 48 h
786-0 renal = system: 786-0 renal
A498 renal = system: A498 renal
ACHN renal = system: ACHN renal
BT-549 breast = system: BT-549 breast
CAKI-1 renal = system: CAKI-1 renal
EKVX NSCLC = system: EKVX NSCLC
HCC-2998 colon = system: HCC-2998 colon
HCT-116 colon = system: HCT-116 colon
MCF7 breast = system: MCF7 breast
NCI-H460 lung = system: NCI-H460 lung
RPMI-8226 leukemia = system: RPMI-8226 leukemia
T-47D breast = system: T-47D breast
RXF 393 renal = system: RXF 393 renal

Measured: TGI

COc1ccc(-n2cnc3c(NC(C)(C)C(=O)O)ncnc32)cc1
not listed: RXF 393 renal
> 100 µM: all other assays above

CCOC(=O)c1c(-c2ccccc2)[nH]c2ccc(Cl)cc2c1=O
62 µM: T-47D breast
93.2 µM: ACHN renal
not listed: A498 renal
> 100 µM: all other assays above

COc1ccc2c(c1)/C(=C\c1cccc(/C=C3/C(=O)Nc4ccc(OC)cc43)n1)C(=O)N2
1.29 µM: HCT-116 colon
5.62 µM: CAKI-1 renal
2.89 µM: RXF 393 renal
> 40.3 µM: EKVX NSCLC
> 24.6 µM: NCI-H460 lung
> 25.6 µM: MCF7 breast
3.58 µM: HCC-2998 colon
5.41 µM: ACHN renal
2.55 µM: 786-0 renal
6.39 µM: BT-549 breast
6.03 µM: A498 renal
2.53 µM: T-47D breast

O=C(/C=C/c1ccccc1)CCC1C(=O)NC(=O)NC1=O
not listed: RXF 393 renal
> 100 µM: all other assays above

CN(C)CCN1C(=O)c2ccccc2C1(O)c1ccc(Cl)cc1 (stereo not given)
77.5 µM: RXF 393 renal
not listed: A498 renal
> 100 µM: all other assays above

CCOC(=O)Oc1cc2c(ccn2C)c2c1c1ccccc1n2C(=O)OCC
not listed: HCC-2998 colon
> 100 µM: all other assays above

CCOC(=O)c1c(NC(=O)c2ccc(OC)cc2)sc2c1CCCC2
not listed: HCC-2998 colon
> 100 µM: all other assays above

CCn1c(SCC(=O)NNC(=S)Nc2ccc(F)cc2)nc2ccccc2c1=O
not listed: CAKI-1 renal | NCI-H460 lung
> 100 µM: all other assays above

NC(CCC(=O)OCc1ccccc1)C(=O)NC(CCC(=O)OCc1ccccc1)C(=O)O (stereo not given) (H-Glu(OBn)-Glu(OBn)-OH; configuration not given here)
not listed: A498 renal
> 100 µM: all other assays above

CC1(C)OC(=O)CC12CCN(Cc1ccccc1)CC2
not listed: HCC-2998 colon | NCI-H460 lung
> 100 µM: all other assays above

COc1cc(/C=N/NC2=NCCCN2)ccc1O
not listed: CAKI-1 renal
> 100 µM: all other assays above

N#CC1=C(N)Nc2nc3ccccc3n2C1c1ccccc1 (stereo not given)
57.4 µM: EKVX NSCLC
56.3 µM: RXF 393 renal
63.1 µM: T-47D breast
96.1 µM: A498 renal
68.5 µM: ACHN renal
62.4 µM: BT-549 breast
31 µM: RPMI-8226 leukemia
not listed: HCC-2998 colon
> 100 µM: all other assays above

N#CC1=C(N2CCOCC2)CCC1
not listed: NCI-H460 lung
> 100 µM: all other assays above

COC(=O)C(Cc1c[nH]c2ccccc12)NP(=O)(O)OCC1OC(n2cc(F)c(=O)[nH]c2=O)CC1O (stereo not given)
not listed: CAKI-1 renal
> 100 µM: all other assays above

Cc1ccccc1NC(=O)/C(C#N)=N\Nc1nc[nH]c1C(N)=O
18.2 µM: CAKI-1 renal
not listed: A498 renal
> 100 µM: all other assays above

NC(=S)N/N=C(/C(=O)Nc1nc2ccc([N+](=O)[O-])cc2s1)C1C(=O)NC(=S)NC1=O
not listed: EKVX NSCLC
> 100 µM: all other assays above

N=C(N)C1CN(CC=O)C(=O)NC1=O (stereo not given)
not listed: CAKI-1 renal | RXF 393 renal
> 100 µM: all other assays above

O=C1CCSc2c(cnc3ccccc23)N1
not listed: HCC-2998 colon
> 100 µM: all other assays above

C=C(Cl)C(Br)(CBr)CCC(Br)C(C)(C)Br (stereo not given)
4.96 µM: RPMI-8226 leukemia
> 1 µM: T-47D breast
5.32 µM: MCF7 breast
3.08 µM: 786-0 renal
3.92 µM: HCT-116 colon
7.86 µM: RXF 393 renal
not listed: NCI-H460 lung
> 10 µM: all other assays above

COc1cc(/C=C2\N=C(c3ccccc3)N(/N=C/c3cc4cc(C)ccc4nc3Cl)C2=O)cc(OC)c1OC
63.3 µM: T-47D breast
42.8 µM: RPMI-8226 leukemia
45.4 µM: HCC-2998 colon
not listed: RXF 393 renal
> 100 µM: all other assays above

COc1ccc(C(=O)N2CCN(c3ccc4[nH]c(=O)oc4c3)CC2)cc1
not listed: A498 renal | CAKI-1 renal | RXF 393 renal
> 100 µM: all other assays above

CC(C)=CCC[C@@H](C)C1=C(Nc2ccccc2)C(O)=C(C)C(=O)C1=O
22.5 µM: MCF7 breast
32.3 µM: T-47D breast
23.1 µM: BT-549 breast
> 100 µM: RPMI-8226 leukemia
> 30.4 µM: A498 renal
16.9 µM: HCT-116 colon
11.8 µM: CAKI-1 renal
21.3 µM: RXF 393 renal
> 48.5 µM: 786-0 renal
> 40 µM: NCI-H460 lung
> 41.4 µM: HCC-2998 colon
> 39.4 µM: EKVX NSCLC

O=C1NC(Cc2c[nH]c3ccccc23)C(=O)N2C(c3ccccc3)c3[nH]c4ccccc4c3C[C@@H]12 (stereo not given in full)
55.9 µM: CAKI-1 renal
46.4 µM: BT-549 breast
34.3 µM: RXF 393 renal
65.2 µM: EKVX NSCLC
89.2 µM: ACHN renal
50.8 µM: RPMI-8226 leukemia
30.6 µM: HCT-116 colon
39.1 µM: 786-0 renal
> 100 µM: A498 renal | MCF7 breast | T-47D breast

CC(C)N(c1cc2c(cc1F)c(=O)c(C(=O)O)cn2-c1ccc(N2CCN(C)CC2)cn1)C(C)C
not listed: ACHN renal | HCC-2998 colon
> 100 µM: all other assays above

O=S1(=O)OCCCOS(=O)(=O)C1Br
not listed: A498 renal | NCI-H460 lung
> 100 µM: all other assays above

CN1CCN(C(=S)N(C)C(=O)c2cccs2)CC1
not listed: A498 renal | CAKI-1 renal | EKVX NSCLC | HCT-116 colon
> 100 µM: all other assays above

COC(=O)/C=C(\S/C(=C(/c1ccc(OC)cc1)n1cc(C(=O)OC)c(C(=O)OC)n1)c1ccc(OC)cc1)C(=O)OC
49.5 µM: EKVX NSCLC
18.5 µM: ACHN renal
10.2 µM: T-47D breast
26.9 µM: 786-0 renal
31.3 µM: HCT-116 colon
6.41 µM: CAKI-1 renal
29.4 µM: RXF 393 renal
not listed: HCC-2998 colon
> 100 µM: all other assays above

CSc1ccc(-c2cc(-c3nc4ccccc4[nH]3)nc3[nH]c(-c4nc5ccccc5[nH]4)cc(=O)c23)cc1
42.7 µM: HCC-2998 colon
not listed: A498 renal
> 100 µM: all other assays above
